# Measured values published in patent US20230141988A1, “PHARMACEUTICAL COMPOSITION FOR USE IN THE TREATMENT OF NEUROLOGICAL DISEASES” (Aclipse One Inc., priority 2020, published 2023).
# Values joined by “and” are separate entries in the source; they are usually repeats but may differ in a detail not shown here. Equal entries are not always repeated. Where two headings read alike, the source gives them in different places.
# Columns and labels:
# [1] = for AUC_%Extrap_obs: Mean, male C57BL/6J mice; for Brain concentration, Mean / Plasma concentration, Mean / CSF concentration / plasma concentration: male, C57BL/6J, mouse, in vivo, po, 25 mg/kg
# Method: (§1) Male C57BL/6J mice were purchased from Si Bei Fu Laboratory Animal Technology Co. Ltd (Beijing, China). The animals were about 8 weeks old with body weights of 20-30 g on the dosing date. The animals were housed in a 12-hour light/12-hour dark cycle environment and had free access to food and water. All animals were fasted overnight and fed after 4 hours collection.
# The formulation was freshly made prior to use. Preparation of formulation for oral dosing are as follows:
# For Group 1 and 2, blood, CSF and brain samples were collected from 3 mice at the following time points.
# Plasma samples: About 30 μL or 300 μL of blood samples were collected from each animal via dorsal metatarsal vein or heart. These blood samples were placed into the tubes containing K2EDTA. And centrifugation at 3000 g for 10 minutes in a 4° C. centrifuge. The completion time from collection was less than 30 min. The stabilizing agent of ascorbic acid at 200 mg/mL was added in a proportion of 10% in plasma. The plasma samples were stored in a freezer at −75±15° C. prior to analysis. The completion time from collection was less than 60 min.
# Brain and CSF Samples: The animals were fully exsanguinated with a rising concentration of CO2 gas prior to CSF and brain collection.
# For CSF collection, make an incision by scissors on the neck of the rats, and the foramen magnum is exposed to the sight of scientist. Use a syringe with a venoclysis needle to sample the CSF, the tip of the needle is insert into the membrane of foramen magnum about 1-2 mm, and then pull the stopcock a small length of the syringe to make a negative pressure, then the CSF fluids to the tube. Watch the fluid in the tube and pull the stopcock slowly, when the amount of the CSF is enough, stop and split the needle and the syringe to ensure there is no negative pressure in the tube. Then cut off the needle and collect the CSF fluid. If we could see the blood in the tube, stop immediately, split the needle and the syringe, and then cut off between the blood and CSF to ensure there is no blood in the CSF fluid. Then collect the CSF fluid. The stabilizing agent of ascorbic acid at 200 mg/mL was added in a proportion of 10% in CSF. The completion time from collection was less than 60 min.
# For brain collection. Brain samples were collected at adopted time point, and washed 3 times with cold saline, then dried with clean gauze and put into the weighed tube, quick frozen in ice box and kept at −75±15° C. All brain samples were weighted and homogenized with phosphate buffered saline (PBS) by brain weight (g) to PBS volume (mL) ratio 1:3 before analysis. The stabilizing agent of ascorbic acid at 200 mg/mL was added in a proportion of 10% in Brain homogenate. The actual concentration was the detected value multiplied by the dilution factor. Brain samples were collected at designed time point, quickly homogenized and kept at −75±15° C. The completion time from collection was less than 60 min.
# Calibration standard working solutions were prepared at concentrations of 0.2, 0.5, 1, 2, 5, 10, 50, 100, 500, 1000 ng/mL by serial dilution of the standard stock solution. These QC samples were prepared on the day of analysis in the same way as calibration standards.
# Plasma: The desired serial concentrations of working solutions were achieved by diluting stock solution of analyte with 50% acetonitrile in water solution. 10 μL of working solutions (0.1, 0.2, 0.5, 1, 2, 5, 10, 50, 100, 500, 1000 ng/mL) were added to 10 μL of the blank C57BL/6J Mice plasma to achieve calibration standards of 0.1˜1000 ng/mL (0.1, 0.2, 0.5, 1, 2, 5, 10, 50, 100, 500, 1000 ng/mL) in a total volume of 20 μL.
# [2] = Solubility in aqueous media / aqueous buffer solutions; format: physicochemical; settings: free base, aqueous media at various pH values
# in vivo [3] = test: in vivo
# Method: Three non-naïve male beagle dogs supplied by Marshall Bioresources (Beijing, China) were used in this study. The animals were confirmed healthy before being assigned to the study. Each animal was given a unique identification number which was marked on ear and written on the cage card. The room(s) were controlled and monitored for relative humidity (targeted mean range 40% to 70%, and any excursion from this range for more than 3 hours will be documented as a deviation) and temperature (targeted mean range 18° C. to 26° C., and any excursion from this range will be documented as a deviation) with 10 to 20 air changes/hour. The rooms were on a 12-hour light/dark cycle except when interruptions are necessitated by study activities.
# Animals were fed twice daily. Stock Dogs were fed approximately 220 grams of Certified Dog Diet daily (Beijing Keao Xieli Feed Co., Ltd. Beijing, P. R. China). These amounts could be adjusted as necessary based on food consumption of the group or an individual body weight change. For PO groups, animals were fed at 3:30 to 4:00 pm on the day prior to oral dosing and any remaining food was removed at 7:00 pm. Food was withheld until 4-hour post-dose. Animals were fed once on the day of dosing, with the amount of approximately 220 grams.
# Three male non-naïve beagle dogs were assigned to this study. […] The detailed dosing and sampling regimens are described in the following two tables:
# PO formulation preparations were processed in study facility on the day of dosing according to instructions provided by the sponsor. The concentrations of compounds in all dosing solutions were determined by HPLC/UV. Two aliquots were taken from each clear and three aliquots were taken from suspension formulations. All formulation samples were stored at 2-8° C. until analyzed by HPLC/UV. All dose formulation samples were analyzed in duplicate using HPLC/UV.
# In plasma, approximately 0.5 mL blood was collected at each time point. All blood samples were collected from a peripheral vessel. All blood samples were transferred into commercially available tubes containing Potassium (K2) EDTA on wet ice and processed for plasma. Samples were centrifuged (3,000×g for 10 minutes at 2 to 8° C.) within 30 minutes of collection. After centrifugation, the stabilizing agent was added to the harvested plasma within 60 minutes. The samples were kept on ice and protected from sunlight (under yellow light). The stabilizing agent was ascorbic acid 200 mg/mL added in a proportion of 10% in plasma. The plasma samples were divided into two equal samples with each at least 0.2 ml (0.2*2 mL/sample) and transferred into labeled polypropylene micro-centrifuge tubes and stored frozen in a freezer set to maintain […] or lower until analyzed.
# In CSF, about 0.1 mL/time point (50 μL*2 aliquots) of CSF were collected via the catheter implanted in the Cisterna Magna of conscious beagle dogs without any sedation. The procedures for CSF collection and handling were as follows: a polypropylene tube was weighed to accuracy of 0.1 mg (weight #1). CSF was collected and weighed the sample tube again (weight #2). Total CSF weight=weight #2−weight #1. The samples were kept on ice and protected from sunlight (under yellow light). Stabilizing agent was added within 60 minutes. The stabilizing agent was ascorbic acid 200 mg/mL added in a proportion of 10% in CSF. CSF samples were frozen on dry ice and stored at −60° C. or lower until bio-analysis.
# For brain samples, different regions of brain were collected. Dogs were anesthetized and euthanasia according to SOP and collected the brain. The striatum, cortex and cerebellum were token rapidly and homogenized immediately (within 30 min) after being harvested. All the samples were stored at −60° C. or lower freezer finally.
# For tissue homogenization, the homogenization solution was methanol:10 mM PBS=1:2 and set on dry ice. An empty conical tube was weighed, recorded, and set on dry ice.
# in vivo [4] = settings: male, C57BL/6J, mouse
# Method: 9 male C57BL/6J mice following administration of a single subcutaneous dose of 4.40 mg/kg. The vehicle for the subcutaneous formulation contained “0.1% sodium metabisulfite solution”.
# as §1
# For group 1, plasma samples were collected from dorsal metatarsal vein at each time point after subcutaneous administrations.
# For plasma samples, about 30 μL or 300 μL of blood samples were collected from each animal via dorsal metatarsal vein or heart. These blood samples were placed into the tubes containing K2EDTA. And centrifugation at 3000 g for 10 minutes in a 4° C. centrifuge. The completion time from collection was less than 30 min. The stabilizing agent of ascorbic acid at 200 mg/mL was added in a proportion of 10% in plasma. The plasma samples were stored in a freezer at −75±15° C. prior to analysis. The completion time from collection was less than 60 min.
# For brain and CSF samples, The animals were fully exsanguinated with a rising concentration of CO2 gas prior to CSF and brain collection.
# For CSF collection, incision was made by scissors on the neck of the rats to expose the foramen magnum. A syringe fitted with a venoclysis needle was used to sample the CSF, the tip of the needle was inserted into the membrane of foramen magnum about 1-2 mm, and a negative pressure was applied by pulling a stopcock a small length of the syringe to extract CSF fluids into a tube. The stopcock was further actuated to until a sufficient amount of CSF was collected. There should be no blood in the CSF fluid. A stabilizing agent of ascorbic acid at 200 mg/mL was added in a proportion of 10% in CSF.
# For brain collection. Brain samples were collected at an adopted time point, and washed 3 times with cold saline, then dried with clean gauze and put into the weighed tube, quick frozen in an ice box and kept at −75±15° C. All brain samples were weighted and homogenized with phosphate buffered saline (PBS) by brain weight (g) to PBS volume (mL) ratio 1:3 before analysis. The stabilizing agent of ascorbic acid at 200 mg/mL was added in a proportion of 10% in grain homogenate. The actual concentration was the detected value multiplied by the dilution factor. Brain samples were collected at designed time point, quickly homogenized and kept at −75±15° C.
# Calibration standard working solutions were prepared at concentrations of 2, 5, 10, 20, 50, 100, 500, 1000, 5000 and 10000 ng/mL by serial dilution of the standard stock solution in 50% acetonitrile in water. Quality control working solutions at concentrations of 5, 10, 500 and 8000 ng/mL were prepared by serial dilution of the standard stock solution in 50% acetonitrile in water. These QC samples were prepared on the day of analysis in the same way as calibration standards.
# For plasma and brain samples, 3 μL of each calibration standard working solution (2, 5, 10, 20, 50, 100, 500, 1000, 5000 and 10000 ng/mL) was added to 30 μL of the blank C57BL/6J mouse plasma or brain homogenate (with 10% 200 mg/mL ascorbic acid) to achieve calibration standards of 0.2-1000 ng/mL (0.2, 0.5, 1, 2, 5, 10, 50, 100, 500, 1000 ng/mL) in a total volume of 33 μL. Quality Control (QC) samples at 0.5 ng/mL (low-1), 1 ng/mL (low-2), 50 ng/mL (mid), 800 ng/mL (high) for plasma were prepared independently for those used for the calibration curves. These QC samples were prepared on the day of analysis in the same way as calibration standards.
# [5] = male, beagle, dog, in vivo, po, 10 mg/kg
# [6] = male, beagle, dog, in vivo, po, 10 mg/kg, 0.5 h
# [7] = single PO 10 mg/kg, 0.500 h, individual animal
compound,measurement,setting,value
CN1CCc2cccc3c2[C@@H]1Cc1ccc(O)c(O)c1-3,AUC_%Extrap_obs,"[1]; CSF, last day (Day 4) of repeated oral dose 25 mg/kg",3.18%
same,AUC_%Extrap_obs,"[1]; brain, single oral dose 25 mg/kg",18.5%
same,"Brain concentration, Mean",[1]; 0.5 h,90 ng/g
same,"Plasma concentration, Mean",[1]; 0.5 h,453 ng/mL
same,"Brain concentration, Mean",[1]; 1 h,36.3 ng/g
same,CSF concentration,[1]; 1 h,3.06 ng/mL
same,"Plasma concentration, Mean",[1]; 1 h,153 ng/mL
same,"Brain concentration, Mean",[1]; 2 h,21.9 ng/g
same,"Brain concentration, Mean",[1]; 3 h,6.80 ng/g
same,"Plasma concentration, Mean",[1]; 3 h,48.2 ng/mL
same,CSF concentration,[1]; 4 h,3.42 ng/mL
same,plasma concentration,[1]; 8 h,0.599 ng/mL
same,plasma concentration,[1]; 12 h,0.150 ng/mL
same,solubility,[2],low solubilities
same,AUC(0-t),in vivo [3]; [5],86.4 ng·h/mL
same,Tlast,in vivo [3]; [5],0.500 h
same,CSF concentration,in vivo [3]; [6],2.71 ng/mL
same,Striatum concentration,in vivo [3]; [6],145 ng/g
same,Kp,"in vivo [3]; male, beagle, dog, in vivo, po, 10 mg/kg, AUClast ratio of CSF to plasma",0.00888 ± 0.0031
same,Cmax,"in vivo [3]; male, beagle, dog, in vivo, po, 10 mg/kg, Cmax, plasma, single PO 10 mg/kg, individual animal",265 ng/mL
same,MRT last,"in vivo [3]; male, beagle, dog, in vivo, po, 10 mg/kg, MRTlast",19.7 min
same,concentration at […],"in vivo [3]; male, beagle, dog, in vivo, po, 10 mg/kg, plasma concentration",255 ng/mL
same,concentration at 0.033 h,"in vivo [3]; male, beagle, dog, in vivo, po, 10 mg/kg, plasma concentration, single PO 10 mg/kg, 119 s, individual animal",2.92 ng/mL
same,Kp at 0.5 h,"in vivo [3]; male, beagle, dog, in vivo, po, 10 mg/kg, ratio of cerebellum/plasma",0.505 ± 0.117
same,Kp at 0.5 h,"in vivo [3]; male, beagle, dog, in vivo, po, 10 mg/kg, ratio of cortex/plasma",0.704 ± 0.184
same,Kp at 0.5 h,"in vivo [3]; male, beagle, dog, in vivo, po, 10 mg/kg, ratio of striatum/plasma",0.666 ± 0.0544
same,Cerebellum concentration,in vivo [3]; [7],129 ng/g
same,Cortex concentration,in vivo [3]; [7],124 ng/g
same,Striatum concentration,in vivo [3]; [7],137 ng/g
same,concentration at 0.5 h,in vivo [4]; CSF concentration,9.59 ng/mL
same,concentration at […],in vivo [4]; CSF concentration,20.5 ng/mL
same,concentration at 0.5 h,in vivo [4]; plasma concentration,169 ng/mL
same,concentration at 1 h,in vivo [4]; plasma concentration,52 ng/mL
same,concentration at 2 h,in vivo [4]; plasma concentration,14.9 ng/mL
same,concentration at […],in vivo [4]; plasma concentration,760 ng/mL and 721 ng/mL
same,concentration at 0.5 h,"in vivo [4]; plasma concentration, Mean",187 ng/mL
same,concentration at 1 h,"in vivo [4]; plasma concentration, Mean",41 ng/mL
same,concentration at 2 h,"in vivo [4]; plasma concentration, Mean",18.7 ng/mL
same,concentration at […],"in vivo [4]; plasma concentration, Mean",970 ng/mL and 692 ng/mL
